Results published in patent publication US20060160851A1, “Substituted piperidine carbamates” (Novo Nordisk A/S, priority 2003, published 2006).

Molecular target: T1, hormone sensitive lipase (Homo sapiens, UniProt Q05469)
T1 construct: made in house
T1 sequence (Q05469 1-1076): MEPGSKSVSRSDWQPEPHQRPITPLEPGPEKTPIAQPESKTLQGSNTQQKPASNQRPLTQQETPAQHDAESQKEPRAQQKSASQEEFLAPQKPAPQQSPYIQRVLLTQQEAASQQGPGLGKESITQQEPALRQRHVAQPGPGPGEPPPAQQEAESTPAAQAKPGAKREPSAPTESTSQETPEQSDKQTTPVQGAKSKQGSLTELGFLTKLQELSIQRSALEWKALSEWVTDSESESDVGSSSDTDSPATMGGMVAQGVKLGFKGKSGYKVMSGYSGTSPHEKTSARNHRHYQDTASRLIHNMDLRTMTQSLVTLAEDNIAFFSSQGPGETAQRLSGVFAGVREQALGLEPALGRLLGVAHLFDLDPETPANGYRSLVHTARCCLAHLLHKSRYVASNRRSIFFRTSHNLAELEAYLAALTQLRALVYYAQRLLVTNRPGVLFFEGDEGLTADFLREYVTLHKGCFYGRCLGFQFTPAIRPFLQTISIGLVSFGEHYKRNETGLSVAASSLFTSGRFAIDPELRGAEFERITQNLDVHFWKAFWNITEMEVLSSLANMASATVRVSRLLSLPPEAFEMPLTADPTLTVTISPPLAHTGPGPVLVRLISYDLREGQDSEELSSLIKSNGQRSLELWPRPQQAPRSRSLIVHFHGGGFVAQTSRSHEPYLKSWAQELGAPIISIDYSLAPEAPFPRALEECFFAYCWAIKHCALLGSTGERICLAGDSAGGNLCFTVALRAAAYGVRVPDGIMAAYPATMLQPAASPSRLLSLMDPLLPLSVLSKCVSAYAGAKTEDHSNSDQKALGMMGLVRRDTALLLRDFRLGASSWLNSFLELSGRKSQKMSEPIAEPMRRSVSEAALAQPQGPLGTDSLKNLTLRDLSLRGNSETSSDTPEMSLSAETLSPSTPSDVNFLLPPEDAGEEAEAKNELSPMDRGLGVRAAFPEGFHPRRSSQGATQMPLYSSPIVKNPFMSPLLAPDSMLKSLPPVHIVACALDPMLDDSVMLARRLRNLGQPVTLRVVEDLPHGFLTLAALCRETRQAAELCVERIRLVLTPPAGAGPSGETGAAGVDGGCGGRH
Assay: Assay 3190.1: percent inhibition of hormone sensitive lipase by compound at 10 μM (fluorochrome-labeled triacylglyceride emulsion, HSL_FL)
Assay type: biochemical
Conditions: 10 μM sample concentration; % activity relative to non-inhibited sample (no compound); 30 min preincubation at 25° C., 120 min incubation at 37° C.; read-out: Test 3190.1 HSL_FL % ACTIVITY
From the text: The Hormone-sensitive lipase was provided by Dr. Cecilia Holm, from Lund University Sweden or produced and purified by Novo Nordisk (NN) using the reagents and protocols used by Dr. Holm. The substrates used are: ^3H-labeled triolein (TO) from Amersham, Buckinghamshire, U.K. cat No. TRA191; 5-20 Ci/mmol dissolved in toluene, triolein (Sigma, Cat. No. T-1740), fluorochrome-labeled triacylglyceride (cis-octadec-9-enoic acid 2-[12-(7-nitrobenzo[1,2,5]oxadiazol-4-ylamino)dodecanoyloxy]-1-cis-octadec-9-enoyloxymethyl-ethyl ester) prepared by Novo Nordisk (NN) by conventional methods, and 1,3-(di[^3H]-stearin), 2-(PEG-Biotin)glycerol prepared in collaboration with Amersham Pharmacia Biotech, UK and described in WO 01/073442. Phosphatidyl choline (PC) and phosphatidyl inositol (PI) are from Sigma (St Luis Mo. cat. Nos. P-3556 and P-5954 respectively). All other reagents are of commercial grade and obtained from various commercial sources.
3190.1: Assay for determination of percent inhibition of hormone sensitive lipase by compound at 10 μM sample concentration.
A lipid emulsion with fluorochrome-labeled triacylglyceride and phospholipid is used as substrate with a standard concentration of highly purified HSL (12 μg/mL initial concentration corresponding to 600 ng/mL final concentration). BSA is added as product acceptor receptor. The transfer of the fluorochrome from the lipid phase to the water (BSA) phase changes the fluorescent properties of the fluorochrome. The changes can be monitored on a fluorimeter with an excitation wavelength of 450 nm and an emission wavelength of 545 nm.
Compound and HSL (20 μL compound, 10 μL enzyme and 70 μL PED-BSA buffer) is pre-incubated for 30 min at 25° C. before addition of substrate (100 μL). Amount of formed product is measured after 120 min incubation at 37° C.
Results are given as percent activity relative to a non-inhibited sample (no compound).

Row | activity at 10 µM [%] | Compound
1 | 1 | Cc1ccc(Cc2ccc(OC(=O)N3CCC(On4cccn4)CC3)cc2)nc1 [Example 48, 4-(Pyrazol-1-yloxy)-piperidine-1-carboxylic acid 4-(5-methyl-pyridin-2-ylmethyl)-phenyl ester]
2 | 3 | Cc1ccc(Cc2ccc(OC(=O)N3CCC(Oc4ccccc4)CC3)cc2)cn1 [Example 50, 4-Phenoxy-piperidine-1-carboxylic acid 4-(6-methyl-pyridin-3-ylmethyl)-phenyl ester]
3 | 1 | C=CCOC(=O)Cc1ccc(OC2CCN(C(=O)Oc3ccc(CCN4C(=O)CC(C)(C)CC4=O)cc3)CC2)cc1 [Example 55, 4-(4-Allyloxycarbonylmethyl-phenoxy)-piperidine-1-carboxylic acid 4-[2-(4,4-dimethyl-2,6-dioxo-piperidin-1-yl)-ethyl]-phenyl ester]
4 | 31 | CC1(C)CC(=O)N(CCc2ccc(OC(=O)N3CCC(Oc4ccc(C(=O)O)cc4)CC3)cc2)C(=O)C1 [Example 59, 4-(4-Carboxy-phenoxy)-piperidine-1-carboxylic acid 4-[2-(4,4-dimethyl-2,6-dioxo-piperidin-1-yl)-ethyl]-phenyl ester]
5 | 15 | O=C(Nc1ccc(OC(=O)N2CCC(On3cccn3)CC2)nc1)c1ccccc1 [Example 61, 4-(Pyrazol-1-yloxy)-piperidine-1-carboxylic acid 5-benzoylamino-pyridin-2-yl ester]
6 | 4 | O=C(Oc1ccc(Cc2ccc(C(F)(F)F)cc2)cc1)N1CCC(Cc2ncccn2)CC1 [Example 67, 4-Pyrimidin-2-ylmethyl-piperidine-1-carboxylic acid 4-(4-trifluoromethyl-benzyl)-phenyl ester]
7 | 3 | O=C(Oc1ccc(Oc2ccc(C(F)(F)F)cn2)cc1)N1CCC(Cc2ccsc2)CC1 [Example 68, 4-Thiophen-3-ylmethyl-piperidine-1-carboxylic acid 4-(5-trifluoromethyl-pyridin-2-yloxy)-phenyl ester]
8 | 9 | Cc1ccc(CC2CCN(C(=O)Oc3ccc(Cc4ccc(C(F)(F)F)cc4)cc3)CC2)nc1 [Example 71, 4-(5-Methyl-pyridin-2-ylmethyl)-piperidine-1-carboxylic acid 4-(4-trifluoromethyl-benzyl)-phenyl ester]
9 | 3 | O=C(O)Cc1ccc(CC2CCN(C(=O)Oc3ccc(Cc4ccc(C(F)(F)F)cc4)cc3)CC2)cc1 [Example 74, 4-(4-Carboxymethyl-benzyl)-piperidine-1-carboxylic acid 4-(4-trifluoromethyl-benzyl)-phenyl ester]
10 | 5 | O=C(O)Cc1ccc(OC2CCN(C(=O)Oc3ccc(C(=O)NCCc4ccccc4)cc3)CC2)cc1 [Example 85, 4-(4-Carboxymethyl-phenoxy)-piperidine-1-carboxylic acid 4-phenethylcarbamoyl-phenyl ester]
11 | 3 | O=C(O)Cc1ccc(OC2CCN(C(=O)Oc3ccc(C(=O)NCC4CCCCC4)cc3)CC2)cc1 [Example 88, 4-(4-Carboxymethyl-phenoxy)-piperidine-1-carboxylic acid 4-(cyclohexylmethyl-carbamoyl)-phenyl ester]
12 | 10 | O=C(O)Cc1ccc(OC2CCN(C(=O)Oc3ccc(C(=O)NCCc4cccs4)cc3)CC2)cc1 [Example 91, 4-(4-Carboxymethyl-phenoxy)-piperidine-1-carboxylic acid 4-(2-thiophen-2-yl-ethylcarbamoyl)-phenyl ester]
13 | 15 | O=C(O)Cc1ccc(OC2CCN(C(=O)Oc3ccc(CCOc4ccc(-n5cnnc5)cc4)cc3)CC2)cc1 [Example 97, 4-(4-Carboxymethyl-phenoxy)-piperidine-1-carboxylic acid 4-[2-(4-[1,2,4]triazol-4-yl-phenoxy)-ethyl]-phenyl ester]
14 | 11 | O=C(O)Cc1ccc(OC2CCN(C(=O)Oc3ccc(Cc4ncc(C(F)(F)F)cc4Cl)cc3)CC2)cc1 [Example 102, 4-(4-Carboxymethyl-phenoxy)-piperidine-1-carboxylic acid 4-(3-chloro-5-trifluoromethyl-pyridin-2-ylmethyl)-phenyl ester]
15 | 6 | O=C(O)Cc1ccc(OC2CCN(C(=O)Oc3ccc(Oc4ccc(C(F)(F)F)cc4)cc3)CC2)cc1 [Example 103, 4-(4-Carboxymethyl-phenoxy)-piperidine-1-carboxylic acid 4-(4-trifluoromethyl-phenoxy)-phenyl ester]
16 | 11 | CC(C)(C)CCNC(=O)c1ccc(OC(=O)N2CCC(Oc3ccc(C(=O)O)cc3)CC2)cc1 [Example 105, 4-(4-Carboxy-phenoxy)-piperidine-1-carboxylic acid 4-(3,3-dimethyl-butylcarbamoyl)-phenyl ester]
17 | 20 | O=C(O)Cc1cccc(OC2CCN(C(=O)Oc3ccc(Oc4ccc(C(F)(F)F)cn4)cc3)CC2)c1 [Example 110, 4-(3-Carboxymethyl-phenoxy)-piperidine-1-carboxylic acid 4-(5-trifluoromethyl-pyridin-2-yloxy)-phenyl ester]
18 | 14 | O=C(O)CCc1cccc(OC2CCN(C(=O)Oc3ccc(Oc4ccc(C(F)(F)F)cn4)cc3)CC2)c1 [Example 112, 4-[3-(2-Carboxy-ethyl)-phenoxy]-piperidine-1-carboxylic acid 4-(5-trifluoromethyl-pyridin-2-yloxy)-phenyl ester]
19 | 8 | O=C(O)Cc1ccc(OC2CCN(C(=O)Oc3ccc(Oc4ccc(Cl)cn4)cc3)CC2)cc1 [Example 117, 4-(4-Carboxymethyl-phenoxy)-piperidine-1-carboxylic acid 4-(5-chloro-pyridin-2-yloxy)-phenyl ester]
